Where “and” joins values, the source holds several entries; their conditions need not be identical. Equal entries are not always repeated. One block for each compound: values may come before it.
Biological target: T1, hP2X7R (Homo sapiens, UniProt Q99572)
T1 sequence (Q99572 1-595): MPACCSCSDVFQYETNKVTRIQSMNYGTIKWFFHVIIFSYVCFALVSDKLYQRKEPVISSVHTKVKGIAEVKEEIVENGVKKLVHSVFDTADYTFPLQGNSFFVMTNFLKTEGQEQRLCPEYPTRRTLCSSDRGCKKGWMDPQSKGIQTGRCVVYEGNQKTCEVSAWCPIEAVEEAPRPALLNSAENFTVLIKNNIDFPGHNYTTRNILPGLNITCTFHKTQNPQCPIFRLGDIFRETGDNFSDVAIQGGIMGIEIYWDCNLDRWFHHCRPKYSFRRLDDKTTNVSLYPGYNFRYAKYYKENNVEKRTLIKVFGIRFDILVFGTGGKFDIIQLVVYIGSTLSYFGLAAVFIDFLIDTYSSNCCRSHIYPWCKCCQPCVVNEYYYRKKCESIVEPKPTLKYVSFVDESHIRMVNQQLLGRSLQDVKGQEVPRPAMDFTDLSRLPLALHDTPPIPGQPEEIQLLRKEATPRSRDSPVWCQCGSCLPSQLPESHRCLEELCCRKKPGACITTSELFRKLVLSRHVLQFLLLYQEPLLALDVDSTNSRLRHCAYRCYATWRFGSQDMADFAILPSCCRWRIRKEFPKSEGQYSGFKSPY
Assay: TEVC determination of antagonist binding kinetics in Xenopus oocytes
Type: cell-based
Design: expressed in transfected cells; host or cells: Xenopus laevis oocytes injected with capped cRNA (modified pUC19 vector, T7)
Settings: for IC50: Supplementary Fig. 10D, read-out: IC50 from binding equilibrium (plateau) dose inhibition curve; for off-rate of binding to the hP2X7R: graphically determined (y-intercept); for off-rate, Response [%]: single replicates
Experimental: Xenopus laevis frogs were from Nasco International (Fort Atkinson, WI) and kept at the Core Facility Animal Models (CAM) of the Biomedical Center (BMC) of LMU Munich, Germany (Az:4.3.2–5682/LMU/BMC/CAM) in accordance with the EU Animal Welfare Act. Ovaries were surgically extracted (ROB_54-011-AZ 2532.Vet_02-23-166), treated with collagenase (Nordmark, Uetersen, Germany 1.0–1.5 mg/mL, ≥2 at RT) and defolliculated (15-min treatment in Ca^2+-free oocyte Ringer (90 mM NaCl, 1 mM KCl, 2 mM MgCl2, 5 mM HEPES), respectively. 50 nL of cRNA (0.5 µg/µL) were injected using a Nanoject II injector (Science Products, Drummond) and oocytes were kept in ND96 (96 mM NaCl, 2 mM KCl, 1 mM MgCl2, 1 mM CaCl2, 5 mM HEPES, pH 7.4–7.5). The plasmid containing the hP2X7R was linearized with NotI-HF (NEB) and purified with the MinElute Reaction Cleanup Kit (Qiagen, Hilden, Germany). Capped cRNA was synthesized using the mMESSAGE mMACHINE™ T7 Transcription Kit (ThermoFisher Scientific, Schwerte, Germany) and dissolved in nuclease-free water (500 ng/µL). Injected oocytes were allowed to express for at least 36 hours.
Two-electrode voltage clamp recordings were performed at room temperature and a holding potential of −70 mV using a Turbo Tec-05X Amplifier (npi electronic, Tamm, Germany), a magnetic valve system, and CellWorks E 5.5.1 software. Currents were filtered at 1 kHz and digitized at 200 Hz. Electrode resistances were below 1.2 MΩ. […] Recordings were performed in ND96.
After obtaining reproducible agonist-evoked responses, solutions were switched to antagonist-containing recording solutions with and without ATP to determine association rates. Responses following antagonist application were normalized to the preceding, stabilized agonist responses. Dissociation was determined in 1- or 2 min intervals when currents were reduced to <10%. Association curves were fit to the data by the equation % Response = (100-Plateau)*exp(-kobs*Time) + Plateau, where Plateau indicates the response at equilibrium and kobs the experimentally determined on-rate. All data were analyzed using Prism software (GraphPad Software, Inc., Version 8.3.0, San Diego, CA) and are presented as means ± SD from at least three oocytes. […] The final concentration of DMSO in the recording solution was ≤1%.
Supplementary Fig. 10: Kinetics of ligands binding to the hP2X7R measured by TEVC. (A) […]
All data represented as mean ± S.D. with n=3, 7, 7, and 7 f or the experiments performed at 3 nM, 10 nM, 30 nM, and 100 nM […]
(B) Representative current traces for t he activation
(C) On- and off-r at e constants and Ki
Observed on- r at es kobs were determined by fitting the data (Fig. 4H, Supplementary Fig. 10A) to the function: % response = (100- Plateau)*exp(-kobs*time)+Plateau and plotted against the antagonist concentrations to obtain koff according to k obs=kon*F+koff. Assuming a (simplified) 1:1 binding model, of f-r at e constant koff and Ki values were estimated using the previous formulas as well as Ki=koff/kon. […]
determined by Ca2+ imaging (18 nM, Fig. 3B ) and the binding equilibrium reached at each […]
values of UB-MBX-46 c annot reflect an accurate value due to the nearly negligible dissociation on the timescale of the experiment. If k off was estimated based on the IC50 value (IC50 = koff/kon panel D), a more accurate koff value can be obtained. Numbers in square brackets are 95% Confidence Intervals. *values obtained from an extrapolated dose inhibition curve from D . (D) The plateau values, representing the binding equilibrium, were used to generate dose inhibition

- Response [%], on-rate to hP2X7R (3 nM, 8 min): 81.7% and 82.6% and 84.4%
- Response [%], on-rate to hP2X7R (3 nM, 10 min): 79.7% and 80.2% and 82.1%
- Response [%], on-rate to hP2X7R (3 nM, 12 min): 77.1% and 77.3% and 80.4%
- Response [%], on-rate to hP2X7R (3 nM, 14 min): 75.7% and 75% and 78.9%
- Response [%], on-rate to hP2X7R (3 nM, 16 min): 74.3% and 73.3% and 77.9%
- Response [%], on-rate to hP2X7R (3 nM, 18 min): 72.4% and 72% and 76.9%
- Response [%], on-rate to hP2X7R (3 nM, 20 min): 71.3% and 75.5%
- Response [%], on-rate to hP2X7R (3 nM, 22 min): 71.1% and 69.9% and 74.3%
- Response [%], on-rate to hP2X7R (3 nM, 24 min): 70.1% and 68.7% and 73%
- Response [%], on-rate to hP2X7R (3 nM, 26 min): 68.4% and 67% and 71.9%
- Response [%], on-rate to hP2X7R (3 nM, 28 min): 67.5%
- Response [%], on-rate to hP2X7R (10 nM, 8 min): 46.2% and 42.1% and 45.9% and 43.2%
- Response [%], on-rate to hP2X7R (10 nM, 10 min): 38.5% and 32.7% and 36.4% and 35.2%
- Response [%], on-rate to hP2X7R (10 nM, 12 min): 32.3% and 28.4% and 29.5% and 27.9%
- Response [%], on-rate to hP2X7R (10 nM, 14 min): 27.8% and 23.8% and 23.7% and 22%
- Response [%], on-rate to hP2X7R (10 nM, 16 min): 24.1% and 19.5% and 19% and 18.8%
- Response [%], on-rate to hP2X7R (10 nM, 18 min): 21.6% and 17% and 14.3% and 15.8%
- Response [%], on-rate to hP2X7R (10 nM, 20 min): 17.8% and 14.3% and 12.1% and 13.7%
- Response [%], on-rate to hP2X7R (10 nM, 22 min): 14.9% and 12.5% and 10.6% and 11.9%
- Response [%], on-rate to hP2X7R (10 nM, 24 min): 12.6% and 11.2% and 8.8% and 10.6%
- Response [%], on-rate to hP2X7R (10 nM, 26 min): 11% and 9.8% and 7.8% and 9.3%
- Response [%], on-rate to hP2X7R (30 nM, 10 min): 13.8% and 4.3% and 7.1% and 7.5%
- Response [%], on-rate to hP2X7R (30 nM, 12 min): 8.8% and 2.5% and 5.3% and 5.2%
- Response [%], on-rate to hP2X7R (30 nM, 14 min): 6% and 1.6% and 3.8% and 3.4%
- Response [%], on-rate to hP2X7R (30 nM, 16 min): 4.7% and 0.9% and 2.8% and 2.9%
- Response [%], on-rate to hP2X7R (30 nM, 18 min): 3% and 0.6% and 2.3% and 2%
- Response [%], on-rate to hP2X7R (30 nM, 20 min): 1.7% and 0.4% and 2%
- Response [%], on-rate to hP2X7R (30 nM, 22 min): 1.2% and 0.4% and 1.8%
- Response [%], on-rate to hP2X7R (100 nM, 8 min): 0.4% and 0.9% and 0.6% and 1.9%
- antagonism of the hP2X7R (TEVC, 300 µM ATP, 100 nM antagonist): strong antagonism
- IC50 (TEVC): 3.8 nM
- off-rate of binding to the hP2X7R (TEVC): 0.07 min⁻¹
- Response %, plateau (binding equilibrium) (log [Antagonist] M -7.5): 0.2898% and 1.031% and 2.642% and 2.211%
- Response %, plateau (binding equilibrium) (log [Antagonist] M -8.5): 67.01% and 62.07% and 63.87%
- off-rate, Response [%] (time 1 min): 2.6% and 0.9% and 1.5%
- off-rate, Response [%] (time 2 min): 2.8% and 1.3% and 1.5%
- off-rate, Response [%] (time 3 min): 3.3% and 1.5% (2×)
- off-rate, Response [%] (time 4 min): 3.1% and 1.7% and 1.5%
- off-rate, Response [%] (time 5 min): 2.6% and 1.7% and 1.5%
- off-rate, Response [%] (time 6 min): 2.6% and 2% and 1.5%
- off-rate, Response [%] (time 7 min): 2.9% and 2.3% and 1.5%
- off-rate, Response [%] (time 8 min): 2.9% and 2.3% and 1.5%
- off-rate, Response [%] (time 9 min): 2.9% and 2.5% and 1.5%
- off-rate, Response [%] (time 10 min): 3.3% and 2.5% and 1.5%
- antagonist dissociation from the hP2X7R (within 10 min of wash-out): virtually irreversible binding
SMILES: CC12CC3CC1(C)C1(C)CC3(C(=O)NNc3ccccc3Cl)CC21C [UB-MBX-46]
- Response %, plateau (binding equilibrium) (log [Antagonist] M -7): 0.2985% and 1.206% and 0.0001019% and 1.64%
- Response %, plateau (binding equilibrium) (log [Antagonist] M -8): 7.079% and 5.855% and 4.45E-19% and 3.075%

- Ki (Ki=koff/kon, 1:1 binding model): 28 nM
- IC50 (TEVC): 15 nM
- off-rate of binding to the hP2X7R (TEVC): 0.29 min⁻¹
- Response %, plateau (binding equilibrium) (log [Antagonist] M -7): 5.6% and 1.4% and 0% and 2.8%
- Response %, plateau (binding equilibrium) (log [Antagonist] M -8): 55.2% and 63.2% and 73.1%
- off-rate, Response [%] (time 2 min): 6.1% and 5.1% and 4% and 3.2% and 6.5%
SMILES: O=C(NNc1ccccc1Cl)C12CC3CC(CC(C3)C1)C2 [UB-ALT-P30, reference compound]
- off-rate, Response [%] (time 4 min): 18.2% and 19.2% and 16% and 12.9% and 19.4%
- off-rate, Response [%] (time 6 min): 33.3% and 37.2% and 28% and 29% and 32.3%
- off-rate, Response [%] (time 8 min): 48.5% and 57.7% and 44% and 38.7% and 48.4%
- off-rate, Response [%] (time 10 min): 63.6% and 73.1% and 60% and 54.8% and 64.5%
